Reference: patent US10899787B2, “Cytarabine prodrug nucleoside cyclic phosphate compound based on liverspecific delivery and use” (ZHEJIANG PALO ALTO PHARMACEUTICALS, INC., priority 2017, dated 2021)

Molecular target: T1, Recombinant human CYP3A4 enzyme (Homo sapiens, UniProt P08684)
T1 construct: purchased BD company lot number 3100772
Test: Evaluation of recombinant human CYP3A4 metabolism in vitro
Format: in vitro ADME
Details: for conversion rate relative to that of PA4102: recombinant human CYP3A4 enzyme in vitro, ratio to PA4102 (Table 4); for Elimination Rate in vitro: recombinant human CYP3A4 enzyme, test compound 100 nM, NADPH 2 mM, pH 7.4, samples at 1, 5, 10, 20, 30 min
Description: Example 12 Evaluation of Recombinant Human CYP3A4 Metabolism In Vitro
Recombinant human CYP3A4 enzyme was purchased from BD company, lot number 3100772.
Test compounds PA4101, PA4102, PA4103, PA4104, PA4105, PA4106, PA4107, PA4108, PA4109, PA4110 and PA4111 were synthesized by Zhejiang Palo Alto Pharmaceuticals, Inc., and dissolved in methanol (from Sinopharm Chemical Reagent Co., Ltd.) to prepare a storage solution of a concentration of 100 μM.
Enzymatic reaction was carried out in 100 mM KH2PO4 buffer solution (pH 7.4), the concentration of the test compounds was 100 nM, the concentration of human liver microsomes was 0.1 nmol/ml, and NADPH concentration was 2 mM. The reaction was initiated by NADPH finally added, and after reaction for 1, 5, 10, 20, 30 min in a constant-temperature shaking water bath kettle, samples were taken, and 1.5 times of volume of methanol was immediately added to terminate the reaction.
3) Sample Processing and Analysis Method
The centrifugation was carried out for 20 minutes at a maximum speed of 13,600 rpm using an Eppendorf tabletop centrifuge. Supernatant was taken, and after being blow-dried by a nitrogen blower, the supernatant was re-dissolved into a mobile phase A (0.1% formic acid v/v aqueous solution).
Analytical column: Waters, Acquity UPLC HSS T3 column • Flow rate: 0.5 ml/min • Column temperature: 45° C.
III Mass Spectrometry Condition
An ion source was an electrospray ionization source (Turbo Ionspray); a positive ion mode; a capillary voltage was 3.0 kV; a temperature was 500° C.; a desolventizing airflow was 1000 L/h; and scan time, cone voltage, collision energy and ion response for quantitative analysis are shown in the following table (Table 3): […]

T1 sequence (P08684 whole entry): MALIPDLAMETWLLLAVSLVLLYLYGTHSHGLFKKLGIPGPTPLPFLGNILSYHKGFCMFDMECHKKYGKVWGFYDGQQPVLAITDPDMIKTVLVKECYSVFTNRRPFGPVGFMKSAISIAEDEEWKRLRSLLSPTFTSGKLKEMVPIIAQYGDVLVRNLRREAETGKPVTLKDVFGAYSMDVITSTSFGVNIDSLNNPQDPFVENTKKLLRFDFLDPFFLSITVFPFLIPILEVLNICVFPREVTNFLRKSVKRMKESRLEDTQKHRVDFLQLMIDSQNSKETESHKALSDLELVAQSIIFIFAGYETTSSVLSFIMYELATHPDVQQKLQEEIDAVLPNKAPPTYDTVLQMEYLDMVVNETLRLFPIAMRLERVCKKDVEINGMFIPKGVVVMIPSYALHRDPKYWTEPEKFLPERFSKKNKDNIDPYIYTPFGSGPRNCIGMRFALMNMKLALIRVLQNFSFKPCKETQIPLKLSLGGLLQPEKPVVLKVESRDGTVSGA

SMILES | conversion rate relative to that of PA4102 | Elimination Rate in vitro [ml/min/gprot]
Nc1ccn([C@@H]2O[C@H](COP3(=O)OCC[C@H](c4cc(Cl)ccc4F)O3)[C@@H](O)[C@@H]2O)c(=O)n1 (some centres unmarked) [PA4101] | ~10.7 times | 35.0
Nc1ccn([C@@H]2O[C@H](COP3(=O)OCC[C@H](c4ccncc4)O3)[C@@H](O)[C@@H]2O)c(=O)n1 (some centres unmarked) [PA4102, reference compound] |  | 3.26
Nc1ccn([C@@H]2O[C@H](COP3(=O)OCC[C@H](c4cc(Cl)cc(Cl)c4)O3)[C@@H](O)[C@@H]2O)c(=O)n1 (some centres unmarked) [PA4103] |  | 23.1
Nc1ccn([C@@H]2O[C@H](COP3(=O)OCC[C@H](c4cc(F)cc(F)c4)O3)[C@@H](O)[C@@H]2O)c(=O)n1 (some centres unmarked) [PA4104] |  | 2.93
Nc1ccn([C@@H]2O[C@H](COP3(=O)OCC[C@H](c4ccc(F)c(Cl)c4)O3)[C@@H](O)[C@@H]2O)c(=O)n1 (some centres unmarked) [PA4105] |  | 5.79
Nc1ccn([C@@H]2O[C@H](COP3(=O)OCC[C@H](c4ccc(Cl)c(F)c4)O3)[C@@H](O)[C@@H]2O)c(=O)n1 (some centres unmarked) [PA4106] |  | 14.9
Nc1ccn([C@@H]2O[C@H](COP3(=O)OCC[C@H](c4cccc(Cl)c4F)O3)[C@@H](O)[C@@H]2O)c(=O)n1 (some centres unmarked) [PA4107] |  | 8.28
Nc1ccn([C@@H]2O[C@H](COP3(=O)OCC[C@H](c4cc(F)ccc4Cl)O3)[C@@H](O)[C@@H]2O)c(=O)n1 (some centres unmarked) [PA4108] | ~7.24 times | 23.6
Nc1ccn([C@@H]2O[C@H](COP3(=O)OCC[C@H](c4cc(Cl)ccc4Cl)O3)[C@@H](O)[C@@H]2O)c(=O)n1 (some centres unmarked) [PA4109] | about 20.6 times | 67.3
Nc1ccn([C@@H]2O[C@H](COP3(=O)OCC[C@H](c4cc(F)ccc4F)O3)[C@@H](O)[C@@H]2O)c(=O)n1 (some centres unmarked) [PA4110] |  | 8.37
Nc1ccn([C@@H]2O[C@H](COP3(=O)OCC[C@H](c4cccc(F)c4F)O3)[C@@H](O)[C@@H]2O)c(=O)n1 (some centres unmarked) [PA4111] |  | 9.55
